Results as given in US9856290B2, “Glycopeptide compositions and uses thereof” (SUSSEX RESEARCH LABORATORIES INC., priority 2013, dated 2018).
Marks after values point to notes of the source that are not given here. Primed or numbered codes have the meaning given here. Where no end group is shown, it is not given here. The star is where a group is joined. Ac3‑α‑GalNAc″ = peracetylated alpha-N-acetylgalactosamine, CC(=O)N[C@@H]1[C@@H](OC(C)=O)[C@@H](OC(C)=O)[C@@H](COC(C)=O)O[C@@H]1*; Ac3‑β‑GlcNAc = per-acetylated β-N-acetylglucosamine, CC(=O)N[C@@H]1[C@@H](OC(C)=O)[C@H](OC(C)=O)[C@@H](COC(C)=O)O[C@H]1*; Ac4‑β‑Glc = per-acetylated β-glucose (tetraacetyl), CC(=O)OC[C@H]1O[C@@H](*)[C@H](OC(C)=O)[C@@H](OC(C)=O)[C@@H]1OC(C)=O; Ac4‑α‑Man = per-acetylated α-mannose, CC(=O)OC[C@H]1O[C@H](*)[C@@H](OC(C)=O)[C@@H](OC(C)=O)[C@@H]1OC(C)=O; β‑maltose = OC[C@H]1O[C@H](O[C@H]2[C@H](O)[C@@H](O)[C@H](*)O[C@@H]2CO)[C@H](O)[C@@H](O)[C@@H]1O; αGalNAc = CC(=O)N[C@@H]1[C@@H](O)[C@@H](O)[C@@H](CO)O[C@@H]1*; βGlcNAc = CC(=O)N[C@@H]1[C@@H](O)[C@H](O)[C@@H](CO)O[C@H]1*; βGlc = OC[C@H]1O[C@@H](*)[C@H](O)[C@@H](O)[C@@H]1O; Palmitoyl = CCCCCCCCCCCCCCCC(=O)*

How the values were obtained:
[1] = test system: Human Dermal Fibroblasts (KMST-6); assay: ECM ELISA assay: elastin secretion by human dermal fibroblasts; format: cell-based; settings: 5 μM; for Elastin Secretion at 48 hours: KMST-6, 48 hours; for Elastin Secretion at 48 hours / Elastin Secretion at 72 hours: % compared to control set at 100%, normalized to total protein
Experimental: (§1) KMST-6 cells (Japan Health Sciences Foundation, JCRB0433) were seeded at 7,000 cells/ml in 12-well tissue culture treated plates (Falcon, 353043) in complete media. The complete media consisted of the following: MEM/EBSS (Hyclone, SH30024.01), 10% Heat-Inactivated FBS (Gibco, 10082-147), 1% L-Glutamine (Hyclone, SH30031.01), 1% Nucleosides (800 mg/L Adenosine, 850 mg/L Guanidine, 730 mg/L Cytidine, 730 mg/L Uridine and 240 mg/L Thymidine), 1% Penicillin/Streptomycin (HyClone, SV30010), 1% Sodium Pyruvate (HyClone, SH30239.01), 1% Non-Essential Amino Acids (Hyclone, SH30238.01) and 0.04% Gentamicin (Gibco, 15710-064). Cells were grown for 2 days prior to treatments. The media was aspirated and cells were washed with 1×PBS (Fisher, SH30256.01) and treated with 5 μM (1 mL/well) glycopeptides, reference (Pal-KTTKS, CPC Scientific, 822197), and control (DMSO, Fisher, BP231-100) in serum-free media supplemented with 50 μg/mL Sodium Ascorbate (Sigma, A4034) and 80 μg/mL β-Aminopropionate Fumarate (Sigma, A3134). The treated cells were incubated at 37° C. and 5% CO2 for 48 and 72 hours. At each timepoint, media from each treatment was collected and centrifuged at 1500 RPM for 15 minutes at 4° C. The supernatant was collected and stored at −80° C. for extracellular matrix protein quantification. The following kits were used for quantification of ECM proteins: Fibronectin (Takara, MK115) and Elastin (Uscn Life Science Inc., E91337Hu). The cells were harvest and lysed with 250 μL Lysis Buffer (20 mM Tris-HCl (Sigma, T1503), 137 mM NaCl (Sigma, S9888), 2 mM EDTA (Fisher, BP118), 1% IGEPAL (Sigma, 18896), 10% Glycerol (Sigma, G5516), 100 μM PMSF (Fisher, 36978) and 10 μg/mL Leupeptin (Sigma-Aldrich, L2884). They were placed on a container of ice on a plate shaker (Lab-Line Instruments, 3595) for 30 minutes. The lysate was centrifuged at 10,000 g for 5 minutes at 4° C. The supernatant was collected and used for protein quantification (BioRad, 500-0112).
(§2) To determine effects on extracellular matrix protein secretion, 5 μM of individual glycopeptides were incubated with Human Dermal Fibroblasts (KMST-6). The control sample cells were treated with DMSO (Fisher, BP231-100). As described previously, supernatant was collected from treated cells (at two time-points, 48 and 72 hours of treatment) and stored at −80° C. for subsequent extracellular matrix protein quantification using ELISA kits (Fibronectin (Takara, MK115), Elastin (Uscn Life Science Inc., E91337Hu). For the determination of total cellular protein, treated cells were harvested and lysed. The lysate was centrifuged, the supernatant was collected and then used for protein quantification (BioRad, 500-0112). ELISA plates were read on the plate reader (Molecular Devices) at absorbance of 450 nm and SoftMax Pro software was used to compute the μg/ml values of protein of interest derived from the generated 4-parameter fit standard curve. Each μg/ml of protein secreted was normalized to total protein per well. The data was analysed by averaging out normalized values from at least three independent experiments and presenting them as a % compared to control treatment set at 100% (Table 2-5). Statistical significance was performed using One-way ANOVA (p<0.05) where “*” represents statistical significance when compared to control and “#” represents statistical significance when compared to reference. […]

[2] = test system: Human Dermal Fibroblasts (KMST-6); assay: ECM ELISA assay: fibronectin secretion by human dermal fibroblasts; format: cell-based; settings: 5 μM; for Fibronectin secretion at 48 hours: KMST-6, 48 hours; for Fibronectin secretion at 48 hours / Fibronectin Secretion at 72 hours: % compared to control set at 100%, normalized to total protein
Experimental: as §1, §2

| Substance | Elastin Secretion at 48 hours [1] | Elastin Secretion at 72 hours ([1]; KMST-6, 72 hours) | Fibronectin secretion at 48 hours [2] | Fibronectin Secretion at 72 hours ([2]; KMST-6, 72 hours) [%] | biological activity in elastin secretion compared to control ([1]; 72 hours) | ELASTIN (ECM Protein Summary Table) ([1]; KMST-6, 72 hours, control 100%) [%] | biological activity in fibronectin secretion compared to control ([2]; 72 hours) | FIBRONECTIN (ECM Protein Summary Table) ([2]; KMST-6, 72 hours, control 100%) [%] |
| --- | --- | --- | --- | --- | --- | --- | --- | --- |
| Pal-KS(β-Glc)TKS-OH (Palmitoyl-KS(βGlc)TKS-OH; SMILES CCCCCCCCCCCCCCCC(=O)N[C@@H](CCCCN)C(=O)N[C@@H](CO[C@@H]1O[C@H](CO)[C@@H](O)[C@H](O)[C@H]1O)C(=O)N[C@H](C(=O)N[C@@H](CCCCN)C(=O)N[C@@H](CO)C(=O)O)[C@@H](C)O; listed as Homo sapiens) [GP003-4] | 136.8% | 120.8% | 165.8* % | 132.5 |  |  |  |  |
| Pal-KT(β-Glc)TKS-OH (Palmitoyl-KT(βGlc)TKS-OH; SMILES CCCCCCCCCCCCCCCC(=O)N[C@@H](CCCCN)C(=O)N[C@H](C(=O)N[C@H](C(=O)N[C@@H](CCCCN)C(=O)N[C@@H](CO)C(=O)O)[C@@H](C)O)[C@@H](C)O[C@@H]1O[C@H](CO)[C@@H](O)[C@H](O)[C@H]1O; listed as Homo sapiens) [GP001-2] | 102.8% | 94.50% | 133.0% | 115.4 |  |  |  |  |
| Pal-KT(β-GlcNAc)TKS-OH (Palmitoyl-KT(βGlcNAc)TKS-OH; SMILES CCCCCCCCCCCCCCCC(=O)N[C@@H](CCCCN)C(=O)N[C@H](C(=O)N[C@H](C(=O)N[C@@H](CCCCN)C(=O)N[C@@H](CO)C(=O)O)[C@@H](C)O)[C@@H](C)O[C@@H]1O[C@H](CO)[C@@H](O)[C@H](O)[C@H]1NC(C)=O; listed as Homo sapiens) [GP001-6] | 91.00% | 81.50% | 123.2% | 100.0 |  |  |  |  |
| Pal-KT(Ac3-α-GalNAc)-T(Ac3-α-GalNAc)KS-OH (Palmitoyl-KT(Ac3‑α‑GalNAc″)T(Ac3‑α‑GalNAc″)KS-OH; SMILES CCCCCCCCCCCCCCCC(=O)N[C@@H](CCCCN)C(=O)N[C@H](C(=O)N[C@H](C(=O)N[C@@H](CCCCN)C(=O)N[C@@H](CO)C(=O)O)[C@@H](C)O[C@H]1O[C@H](COC(C)=O)[C@H](OC(C)=O)[C@H](OC(C)=O)[C@H]1NC(C)=O)[C@@H](C)O[C@H]1O[C@H](COC(C)=O)[C@H](OC(C)=O)[C@H](OC(C)=O)[C@H]1NC(C)=O; listed as Homo sapiens) [GP001-13] | 123.8% | 131.3% | 114.0% | 94.50 |  |  |  |  |
| Pal-KT(Ac4-α-Man)TKS-OH (Palmitoyl-KT(Ac4‑α‑Man)TKS-OH; SMILES CCCCCCCCCCCCCCCC(=O)N[C@@H](CCCCN)C(=O)N[C@H](C(=O)N[C@H](C(=O)N[C@@H](CCCCN)C(=O)N[C@@H](CO)C(=O)O)[C@@H](C)O)[C@@H](C)O[C@H]1O[C@H](COC(C)=O)[C@@H](OC(C)=O)[C@H](OC(C)=O)[C@@H]1OC(C)=O; listed as Homo sapiens) [GP003-1] | 464.1* % | 413.6* % | 193.7* % | 125.3 |  |  |  |  |
| Pal-KT(α-GalNAc)TKS-OH (Palmitoyl-KT(αGalNAc)TKS-OH; SMILES CCCCCCCCCCCCCCCC(=O)N[C@@H](CCCCN)C(=O)N[C@H](C(=O)N[C@H](C(=O)N[C@@H](CCCCN)C(=O)N[C@@H](CO)C(=O)O)[C@@H](C)O)[C@@H](C)O[C@H]1O[C@H](CO)[C@H](O)[C@H](O)[C@H]1NC(C)=O; listed as Homo sapiens) [GP001-4] | 104.5% | 100.0% | 134.2% | 112.5 |  |  |  |  |
| Pal-KTT(β-GlcNAc)KS-OH (Palmitoyl-KTT(βGlcNAc)KS-OH; SMILES CCCCCCCCCCCCCCCC(=O)N[C@@H](CCCCN)C(=O)N[C@H](C(=O)N[C@H](C(=O)N[C@@H](CCCCN)C(=O)N[C@@H](CO)C(=O)O)[C@@H](C)O[C@@H]1O[C@H](CO)[C@@H](O)[C@H](O)[C@H]1NC(C)=O)[C@@H](C)O; listed as Homo sapiens) [GP001-12] | 73.00% | 76.75% | 106.5% | 89.25 |  |  |  |  |
| Dal-KT(β-Mal)TKS-OH (KT(β‑maltose)TKS-OH; not fully specified (N-terminus); printed as Dal-KT(β-Mal)TKS-OH; listed as Homo sapiens) [GP003-10] | 149.5% | 127.6% | 144.5% | 94.70 |  |  |  |  |
| Pal-KTTKS(Ac3-β-GlcNAc)-OH (Palmitoyl-KTTKS(Ac3‑β‑GlcNAc)-OH; SMILES CCCCCCCCCCCCCCCC(=O)N[C@@H](CCCCN)C(=O)N[C@H](C(=O)N[C@H](C(=O)N[C@@H](CCCCN)C(=O)N[C@@H](CO[C@@H]1O[C@H](COC(C)=O)[C@@H](OC(C)=O)[C@H](OC(C)=O)[C@H]1NC(C)=O)C(=O)O)[C@@H](C)O)[C@@H](C)O; listed as Homo sapiens) [GP002-5] | 159.3% | 137.3% | 111.3% | 104.2 |  |  |  |  |
| Pal-KTTKS(β-Glc)-OH (Palmitoyl-KTTKS(βGlc)-OH; SMILES CCCCCCCCCCCCCCCC(=O)N[C@@H](CCCCN)C(=O)N[C@H](C(=O)N[C@H](C(=O)N[C@@H](CCCCN)C(=O)N[C@@H](CO[C@@H]1O[C@H](CO)[C@@H](O)[C@H](O)[C@H]1O)C(=O)O)[C@@H](C)O)[C@@H](C)O; listed as Homo sapiens) [GP002-4] | 145.0% | 142.0% | 121.5% | 116.0 |  |  |  |  |
| Pal-KT(Ac4-β-Glc)TKS-OH (Palmitoyl-KT(Ac4‑β‑Glc)TKS-OH; SMILES CCCCCCCCCCCCCCCC(=O)N[C@@H](CCCCN)C(=O)N[C@H](C(=O)N[C@H](C(=O)N[C@@H](CCCCN)C(=O)N[C@@H](CO)C(=O)O)[C@@H](C)O)[C@@H](C)O[C@@H]1O[C@H](COC(C)=O)[C@@H](OC(C)=O)[C@H](OC(C)=O)[C@H]1OC(C)=O; listed as Homo sapiens) [GP001-1] | 205.3% | 188.0% | 159.3* % | 121.5 | greater biological activity | 188 | greater biological activity | 122 |
